Source: ChEMBL document CHEMBL5576050, “Discovery of a DCAF11-dependent cyanoacrylamide-containing covalent degrader of BET-proteins” (Bioorg Med Chem Lett, 2024)
Each block holds one compound with its values, some of them ahead of it. Calls of active or inactive are those of the source. No cut-off for these calls is given here.

Tests used:
[1] = system: KBM-7; assay: Downregulation of c-Myc expression in human KBM-7 cells at 5 uM after 5 hrs by Western blotting analysis; type: functional, cell-based
[2] = biological target: Bromodomain-containing protein 3 (Homo sapiens) (UniProt Q15059); assay: Induction of BRD3 degradation in human KBM-7 cells at 5 uM incubated for 5 hrs by Western blotting analysis; type: cell-based
Chain of Bromodomain-containing protein 3 (Homo sapiens) (Q15059 2-726 limits assumed): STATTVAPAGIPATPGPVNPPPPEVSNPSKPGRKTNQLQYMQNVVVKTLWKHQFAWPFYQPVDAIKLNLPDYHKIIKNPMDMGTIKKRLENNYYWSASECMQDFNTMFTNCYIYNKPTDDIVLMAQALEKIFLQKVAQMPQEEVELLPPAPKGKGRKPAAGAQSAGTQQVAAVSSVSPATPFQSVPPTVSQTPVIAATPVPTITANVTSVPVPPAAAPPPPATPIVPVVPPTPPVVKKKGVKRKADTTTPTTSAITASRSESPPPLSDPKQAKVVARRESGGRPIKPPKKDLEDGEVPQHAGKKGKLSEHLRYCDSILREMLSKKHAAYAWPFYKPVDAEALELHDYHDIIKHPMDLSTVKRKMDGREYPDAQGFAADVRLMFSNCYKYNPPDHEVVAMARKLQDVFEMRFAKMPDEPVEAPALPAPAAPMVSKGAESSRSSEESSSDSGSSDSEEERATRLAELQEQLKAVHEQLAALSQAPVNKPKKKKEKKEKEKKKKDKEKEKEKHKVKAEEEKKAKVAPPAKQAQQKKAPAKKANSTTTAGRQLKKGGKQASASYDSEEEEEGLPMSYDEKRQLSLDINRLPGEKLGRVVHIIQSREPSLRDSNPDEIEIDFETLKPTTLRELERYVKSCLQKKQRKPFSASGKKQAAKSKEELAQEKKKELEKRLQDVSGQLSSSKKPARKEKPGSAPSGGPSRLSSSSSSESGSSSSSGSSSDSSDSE

[3] = biological target: T1, Bromodomain-containing protein 4 (Homo sapiens, UniProt O60885); assay: Induction of BRD4 degradation in human KBM-7 cells at 5 uM incubated for 5 hrs by Western blotting analysis; type: cell-based
[4] = biological target: T1, Bromodomain-containing protein 4; assay: Induction of nLuc-tagged BRD4S degradation in human KBM-7 cells incubated for 2 to 24 hrs by nanoluciferase based assay; type: cell-based; settings: for Activity: time 2-24 hrs
[5] = biological target: Bromodomain-containing protein 3 (Homo sapiens) (UniProt Q15059); assay: Induction of BRD3 degradation in human KBM-7 cells at 5 uM pretreated with bortezomib for 1 hr followed by compound addition and measured after 6 hrs by Western blotting analysis; type: cell-based
[6] = biological target: Bromodomain-containing protein 3 (Homo sapiens) (UniProt Q15059); assay: Induction of BRD3 degradation in human KBM-7 cells at 5 uM pretreated with TAK-243 for 1 hr followed by compound addition and measured after 6 hrs by Western blotting analysis; type: cell-based
[7] = biological target: Bromodomain-containing protein 3 (Homo sapiens) (UniProt Q15059); assay: Induction of BRD3 degradation in human KBM-7 cells at 5 uM pretreated with carfilzomib for 1 hr followed by compound addition and measured after 6 hrs by Western blotting analysis; type: cell-based
[8] = biological target: Bromodomain-containing protein 3 (Homo sapiens) (UniProt Q15059); assay: Induction of BRD3 degradation in DCAF11 knockout human KBM-7 cells at 5 uM after 6 hrs by Western blotting analysis; type: cell-based
[9] = biological target: T1, Bromodomain-containing protein 4; assay: Induction of nLuc-tagged BRD4S degradation in human KBM-7 cells by nanoluciferase based assay; type: cell-based; settings: time 2-24 hrs, TDE = time-dependent effect
[10] = biological target: T1, Bromodomain-containing protein 4; assay: Induction of HA-tagged BRD4S degradation in human KBM-7 cells at 5 uM pretreated with bortezomib for 1 hr followed by compound addition and measured after 6 hrs by Western blotting analysis; type: cell-based
[11] = biological target: Bromodomain-containing protein 3 (Homo sapiens) (UniProt Q15059); assay: Induction of BRD3 degradation in human KBM-7 cells at 5 uM pretreated with […] binder 11 for 1 hr followed by compound addition and measured after 5 hrs by Western blotting analysis; type: cell-based
[12] = biological target: T1, Bromodomain-containing protein 4; assay: Induction of BRD4 degradation in DCAF11 knockout human KBM-7 cells at 5 uM after 6 hrs by Western blotting analysis; type: cell-based
[13] = biological target: T1, Bromodomain-containing protein 4; assay: Induction of HA-tagged BRD4S degradation in human KBM-7 cells at 5 uM pretreated with carfilzomib for 1 hr followed by compound addition and measured after 6 hrs by Western blotting analysis; type: cell-based
[14] = biological target: T1, Bromodomain-containing protein 4; assay: Induction of BRD4S-BFP in DCAF11 knockout human K-BM7 cells transduced with sgRNA-resistant wild-type DCAF11 at 5 uM incubated for 6 hrs by flow cytometry analysis; type: cell-based; settings: KBM-7
[15] = biological target: T1, Bromodomain-containing protein 4; assay: Induction of BRD4 degradation in human KBM-7 cells at 5 uM pretreated with […] binder 11 for 1 hr followed by compound addition and measured after 5 hrs by Western blotting analysis; type: cell-based
[16] = biological target: T1, Bromodomain-containing protein 4; assay: Induction of BRD4S-BFP in DCAF11 knockout human K-BM7 cells transduced with sgRNA-resistant DCAF11 vector containing Cys-to-Ala mutant at 5 uM incubated for 6 hrs by flow cytometry analysis; type: cell-based; settings: KBM-7
[17] = biological target: Bromodomain-containing protein 2 (Homo sapiens) (UniProt P25440); assay: Induction of BRD2 degradation in human KBM-7 cells at 5 uM pretreated with DCAF11 binder 12 for 1 hr followed by compound addition and measured after 5 hrs by Western blotting analysis; type: cell-based
Chain of Bromodomain-containing protein 2 (Homo sapiens) (P25440 whole entry, looked up): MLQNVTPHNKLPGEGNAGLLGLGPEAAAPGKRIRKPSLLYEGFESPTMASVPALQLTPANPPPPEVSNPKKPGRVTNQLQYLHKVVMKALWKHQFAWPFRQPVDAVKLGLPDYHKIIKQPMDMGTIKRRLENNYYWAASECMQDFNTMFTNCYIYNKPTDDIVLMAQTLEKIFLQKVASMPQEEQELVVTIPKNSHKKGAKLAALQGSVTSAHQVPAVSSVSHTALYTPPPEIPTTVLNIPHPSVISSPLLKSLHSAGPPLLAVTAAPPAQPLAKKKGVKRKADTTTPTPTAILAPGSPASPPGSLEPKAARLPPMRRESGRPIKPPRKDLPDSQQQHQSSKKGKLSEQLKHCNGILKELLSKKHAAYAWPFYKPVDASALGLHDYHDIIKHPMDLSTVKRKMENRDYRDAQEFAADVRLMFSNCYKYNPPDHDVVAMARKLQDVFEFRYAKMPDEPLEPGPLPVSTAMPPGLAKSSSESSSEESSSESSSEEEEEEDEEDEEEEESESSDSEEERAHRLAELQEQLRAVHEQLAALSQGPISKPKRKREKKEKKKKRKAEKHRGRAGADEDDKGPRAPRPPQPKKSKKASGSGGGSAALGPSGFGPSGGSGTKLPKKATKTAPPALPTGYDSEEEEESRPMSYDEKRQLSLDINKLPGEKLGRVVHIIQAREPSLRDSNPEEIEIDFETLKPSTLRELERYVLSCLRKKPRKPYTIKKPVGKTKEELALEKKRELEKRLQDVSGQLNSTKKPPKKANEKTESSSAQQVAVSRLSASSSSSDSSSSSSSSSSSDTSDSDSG

[18] = biological target: Bromodomain-containing protein 2 (Homo sapiens) (UniProt P25440); assay: Induction of BRD2 degradation in human KBM-7 cells at 5 uM pretreated with […] binder 11 for 1 hr followed by compound addition and measured after 5 hrs by Western blotting analysis; type: cell-based
[19] = biological target: T1, Bromodomain-containing protein 4; assay: Induction of HA-tagged BRD4S degradation in human KBM-7 cells at 5 uM after 5 to 20 hrs by Western blotting analysis; type: cell-based; settings: time 5-20 hrs
[20] = biological target: T1, Bromodomain-containing protein 4; assay: Induction of BRD4 degradation in human KBM-7 cells at 5 uM pretreated with […] binder 12 for 1 hr followed by compound addition and measured after 5 hrs by Western blotting analysis; type: cell-based
[21] = system: KBM-7; assay: Downregulation of c-MYC expression in DCAF11 knockout human KBM-7 cells at 5 uM after 6 hrs by Western blotting analysis; type: functional, cell-based
[22] = biological target: T1, Bromodomain-containing protein 4; assay: Induction of HA-tagged BRD4S degradation in human KBM-7 cells at 5 uM pretreated with TAK-243 for 1 hr followed by compound addition and measured after 6 hrs by Western blotting analysis; type: cell-based
[23] = biological target: Bromodomain-containing protein 3 (Homo sapiens) (UniProt Q15059); assay: Induction of BRD3 degradation in human KBM-7 cells at 5 uM pretreated with […] binder 12 for 1 hr followed by compound addition and measured after 5 hrs by Western blotting analysis; type: cell-based

Activity [2]: Active
Activity [3]: Active
Compound: Cc1sc2c(c1C)C(c1ccc(Cl)cc1)=N[C@@H](CC(=O)NCCCCCCNC(=O)COc1ccc(CNC(=O)CCc3ccc4ccccc4c3)cc1)c1nnc(C)n1-2
Activity [1]: inactive

DC50 [4]: 305 nM
Activity [4]: Dose-Dependent Effect
Activity [5]: inactive
Activity [6]: inactive
Activity [7]: inactive
Activity [8]: inactive
Activity [9]: Tde
Activity [10]: inactive
Activity [11]: inactive
Activity [12]: inactive
Activity [13]: inactive
Activity [14]: Active
Activity [15]: inactive
Activity [16]: inactive
Activity [17]: inactive
Activity [2]: Active
Activity [18]: inactive
Activity [19]: Active
Activity [20]: inactive
Activity [22]: inactive
Activity [3]: Active
Activity [23]: inactive
Compound: Cc1sc2c(c1C)C(c1ccc(Cl)cc1)=N[C@@H](CC(=O)NCCCCCCNC(=O)COc1ccc(CNC(=O)/C(C#N)=C/c3ccc4ccccc4c3)cc1)c1nnc(C)n1-2
Activity [1]: Active
Activity [21]: Active

Activity [4]: inactive
Activity [2]: Active
Activity [3]: Active
Compound: Cc1sc2c(c1C)C(c1ccc(Cl)cc1)=N[C@@H](CC(=O)NCCCCCCNC(=O)COc1ccc(CNC(=O)/C=C/c3ccc4ccccc4c3)cc1)c1nnc(C)n1-2
Activity [1]: inactive

DC50 [4]: 396 nM
Activity [4]: Dose-Dependent Effect
Activity [9]: Tde
Compound: Cc1sc2c(c1C)C(c1ccc(Cl)cc1)=N[C@@H](CC(=O)NCCOCCOCCNC(=O)COc1ccc(CNC(=O)/C(C#N)=C/c3ccc4ccccc4c3)cc1)c1nnc(C)n1-2
